In PubChem BioAssay (NCI):
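Assay format: 96-well plates, 48-hour exposure. TGI is the concentration that stops growth completely.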

Tests used:
Test in all cases: NCI anticancer screen, dose series, 48 h
LOX IMVI melanoma = system: LOX IMVI melanoma
M14 melanoma = system: M14 melanoma
SNB-78 CNS = system: SNB-78 CNS
U251 CNS = system: U251 CNS
DLD-1 colon = system: DLD-1 colon
K-562 leukemia = system: K-562 leukemia
786-0 renal = system: 786-0 renal
HOP-62 NSCLC = system: HOP-62 NSCLC
M19-MEL melanoma = system: M19-MEL melanoma
RXF 393 renal = system: RXF 393 renal
HL-60(TB) leukemia = system: HL-60(TB) leukemia
NCI-H460 lung = system: NCI-H460 lung
SK-MEL-2 melanoma = system: SK-MEL-2 melanoma
SF-295 CNS = system: SF-295 CNS
HCC-2998 colon = system: HCC-2998 colon
A498 renal = system: A498 renal
A549 NSCLC = system: A549 NSCLC
MALME-3M melanoma = system: MALME-3M melanoma
MOLT-4 leukemia = system: MOLT-4 leukemia
TK-10 renal = system: TK-10 renal
EKVX NSCLC = system: EKVX NSCLC
OVCAR-8 ovarian = system: OVCAR-8 ovarian
KM12 colon = system: KM12 colon
OVCAR-5 ovarian = system: OVCAR-5 ovarian
UO-31 renal = system: UO-31 renal
SF-268 CNS = system: SF-268 CNS
CAKI-1 renal = system: CAKI-1 renal
NCI-H23 lung = system: NCI-H23 lung
SR leukemia = system: SR leukemia
LXFL 529 NSCLC = system: LXFL 529 NSCLC
SW-620 colon = system: SW-620 colon
SK-MEL-28 melanoma = system: SK-MEL-28 melanoma
NCI-H522 lung = system: NCI-H522 lung
HOP-18 NSCLC = system: HOP-18 NSCLC
NCI-H226 lung = system: NCI-H226 lung
UACC-62 melanoma = system: UACC-62 melanoma
HCT-116 colon = system: HCT-116 colon
IGROV1 ovarian = system: IGROV1 ovarian
SNB-19 CNS = system: SNB-19 CNS
ACHN renal = system: ACHN renal
OVCAR-4 ovarian = system: OVCAR-4 ovarian
HCT-15 colon = system: HCT-15 colon
SK-OV-3 ovarian = system: SK-OV-3 ovarian
DMS 114 small cell lung = system: DMS 114 small cell lung
RPMI-8226 leukemia = system: RPMI-8226 leukemia
COLO 205 colon = system: COLO 205 colon
HOP-92 NSCLC = system: HOP-92 NSCLC
UACC-257 melanoma = system: UACC-257 melanoma
SN12C renal = system: SN12C renal
OVCAR-3 ovarian = system: OVCAR-3 ovarian
XF 498 CNS = system: XF 498 CNS
CCRF-CEM leukemia = system: CCRF-CEM leukemia
HT29 colon = system: HT29 colon
SF-539 CNS = system: SF-539 CNS
KM20L2 colon = system: KM20L2 colon
SK-MEL-5 melanoma = system: SK-MEL-5 melanoma
SNB-75 CNS = system: SNB-75 CNS
DMS 273 small cell lung = system: DMS 273 small cell lung

Work on `Nn1c(N=Nc2c(O)[nH]c3ccccc23)n[nH]c1=S` yielded a TGI (LOX IMVI melanoma) greater than 100 µM, a TGI (M14 melanoma) greater than 100 µM and a TGI (SNB-78 CNS) greater than 100 µM. For the same compound, the TGI (U251 CNS) was greater than 100 µM, the TGI (DLD-1 colon) was greater than 100 µM and the TGI (K-562 leukemia) was greater than 100 µM. The TGI (786-0 renal) was greater than 100 µM, the TGI (HOP-62 NSCLC) was greater than 100 µM and the TGI (M19-MEL melanoma) was greater than 100 µM. The TGI (RXF 393 renal) was 95.1 µM, the TGI (HL-60(TB) leukemia) was greater than 100 µM and the TGI (NCI-H460 lung) was greater than 100 µM. For the same compound, the TGI (SK-MEL-2 melanoma) was greater than 100 µM, the TGI (SF-295 CNS) was greater than 100 µM and the TGI (HCC-2998 colon) was greater than 100 µM. It also gave a TGI (A498 renal) greater than 100 µM, a TGI (A549 NSCLC) greater than 100 µM and a TGI (MALME-3M melanoma) greater than 100 µM. For the same compound, the TGI (MOLT-4 leukemia) was greater than 100 µM, the TGI (TK-10 renal) was greater than 100 µM and the TGI (EKVX NSCLC) was greater than 100 µM. It also gave a TGI (OVCAR-8 ovarian) greater than 100 µM, a TGI (KM12 colon) greater than 100 µM and a TGI (OVCAR-5 ovarian) greater than 100 µM. It also gave a TGI (UO-31 renal) greater than 100 µM, a TGI (SF-268 CNS) greater than 100 µM and a TGI (CAKI-1 renal) greater than 100 µM. It also gave a TGI (NCI-H23 lung) greater than 100 µM, a TGI (SR leukemia) greater than 100 µM and a TGI (LXFL 529 NSCLC) greater than 100 µM. For the same compound, the TGI (SW-620 colon) was greater than 100 µM, the TGI (SK-MEL-28 melanoma) was greater than 100 µM and the TGI (NCI-H522 lung) was greater than 100 µM. For the same compound, the TGI (HOP-18 NSCLC) was greater than 100 µM, the TGI (NCI-H226 lung) was greater than 100 µM and the TGI (UACC-62 melanoma) was greater than 100 µM. The TGI (HCT-116 colon) was greater than 100 µM, the TGI (IGROV1 ovarian) was greater than 100 µM and the TGI (SNB-19 CNS) was greater than 100 µM. It also gave a TGI (ACHN renal) greater than 100 µM, a TGI (OVCAR-4 ovarian) greater than 100 µM and a TGI (HCT-15 colon) greater than 100 µM. For the same compound, the TGI (SK-OV-3 ovarian) was greater than 100 µM, the TGI (DMS 114 small cell lung) was greater than 100 µM and the TGI (RPMI-8226 leukemia) was greater than 100 µM. It also gave a TGI (COLO 205 colon) greater than 100 µM, a TGI (HOP-92 NSCLC) greater than 100 µM and a TGI (UACC-257 melanoma) greater than 100 µM. It also gave a TGI (SN12C renal) greater than 100 µM, a TGI (OVCAR-3 ovarian) greater than 100 µM and a TGI (XF 498 CNS) of 94 µM. The TGI (CCRF-CEM leukemia) was greater than 100 µM, the TGI (HT29 colon) was greater than 100 µM and the TGI (SF-539 CNS) was greater than 100 µM. It also gave a TGI (KM20L2 colon) greater than 100 µM.

For `Cc1nc(N)sc1C(=O)/C=C/c1ccc([N+](=O)[O-])cc1`, the TGI (LOX IMVI melanoma) was greater than 100 µM, the TGI (SNB-78 CNS) was greater than 100 µM and the TGI (SK-MEL-5 melanoma) was greater than 100 µM. The TGI (U251 CNS) was greater than 100 µM, the TGI (DLD-1 colon) was greater than 100 µM and the TGI (K-562 leukemia) was greater than 100 µM. The TGI (786-0 renal) was greater than 100 µM, the TGI (HOP-62 NSCLC) was greater than 100 µM and the TGI (M19-MEL melanoma) was greater than 100 µM. The TGI (RXF 393 renal) was greater than 100 µM, the TGI (HL-60(TB) leukemia) was greater than 100 µM and the TGI (NCI-H460 lung) was greater than 100 µM. For the same compound, the TGI (SK-MEL-2 melanoma) was greater than 100 µM, the TGI (SF-295 CNS) was greater than 100 µM and the TGI (HCC-2998 colon) was greater than 100 µM. The TGI (A498 renal) was greater than 100 µM, the TGI (A549 NSCLC) was greater than 100 µM and the TGI (MALME-3M melanoma) was greater than 100 µM. For the same compound, the TGI (MOLT-4 leukemia) was greater than 100 µM, the TGI (TK-10 renal) was greater than 100 µM and the TGI (EKVX NSCLC) was greater than 100 µM. For the same compound, the TGI (SNB-75 CNS) was greater than 100 µM, the TGI (OVCAR-8 ovarian) was greater than 100 µM and the TGI (KM12 colon) was greater than 100 µM. It also gave a TGI (OVCAR-5 ovarian) greater than 100 µM, a TGI (UO-31 renal) greater than 100 µM and a TGI (SF-268 CNS) greater than 100 µM. The TGI (CAKI-1 renal) was greater than 100 µM, the TGI (NCI-H23 lung) was greater than 100 µM and the TGI (SW-620 colon) was greater than 100 µM. The TGI (SK-MEL-28 melanoma) was greater than 100 µM, the TGI (NCI-H522 lung) was greater than 100 µM and the TGI (DMS 273 small cell lung) was greater than 100 µM. The TGI (HOP-18 NSCLC) was greater than 100 µM, the TGI (UACC-62 melanoma) was greater than 100 µM and the TGI (IGROV1 ovarian) was greater than 100 µM. The TGI (SNB-19 CNS) was greater than 100 µM, the TGI (HCT-15 colon) was greater than 100 µM and the TGI (SK-OV-3 ovarian) was greater than 100 µM. It also gave a TGI (DMS 114 small cell lung) greater than 100 µM, a TGI (RPMI-8226 leukemia) greater than 100 µM and a TGI (COLO 205 colon) greater than 100 µM. It also gave a TGI (HOP-92 NSCLC) greater than 100 µM, a TGI (UACC-257 melanoma) greater than 100 µM and a TGI (SN12C renal) greater than 100 µM. The TGI (OVCAR-3 ovarian) was greater than 100 µM, the TGI (CCRF-CEM leukemia) was greater than 100 µM and the TGI (HT29 colon) was greater than 100 µM. The TGI (SF-539 CNS) was greater than 100 µM and the TGI (KM20L2 colon) was greater than 100 µM.
